Assay results published in US12649751B2 (Arcus Biosciences, Inc., priority 2022, dated 2026).

Target: HPK1 (Homo sapiens, UniProt Q92918)
Test: HPK1 Biochemical Assay (ADP-Glo luminescence; low ATP 10 μM or high ATP 200 μM)
Details: 2 nM HPK1, 10 μM ATP; read-out: Biochemical Potency (low ATP)

Sequence of HPK1 (Q92918 whole entry, species assumed): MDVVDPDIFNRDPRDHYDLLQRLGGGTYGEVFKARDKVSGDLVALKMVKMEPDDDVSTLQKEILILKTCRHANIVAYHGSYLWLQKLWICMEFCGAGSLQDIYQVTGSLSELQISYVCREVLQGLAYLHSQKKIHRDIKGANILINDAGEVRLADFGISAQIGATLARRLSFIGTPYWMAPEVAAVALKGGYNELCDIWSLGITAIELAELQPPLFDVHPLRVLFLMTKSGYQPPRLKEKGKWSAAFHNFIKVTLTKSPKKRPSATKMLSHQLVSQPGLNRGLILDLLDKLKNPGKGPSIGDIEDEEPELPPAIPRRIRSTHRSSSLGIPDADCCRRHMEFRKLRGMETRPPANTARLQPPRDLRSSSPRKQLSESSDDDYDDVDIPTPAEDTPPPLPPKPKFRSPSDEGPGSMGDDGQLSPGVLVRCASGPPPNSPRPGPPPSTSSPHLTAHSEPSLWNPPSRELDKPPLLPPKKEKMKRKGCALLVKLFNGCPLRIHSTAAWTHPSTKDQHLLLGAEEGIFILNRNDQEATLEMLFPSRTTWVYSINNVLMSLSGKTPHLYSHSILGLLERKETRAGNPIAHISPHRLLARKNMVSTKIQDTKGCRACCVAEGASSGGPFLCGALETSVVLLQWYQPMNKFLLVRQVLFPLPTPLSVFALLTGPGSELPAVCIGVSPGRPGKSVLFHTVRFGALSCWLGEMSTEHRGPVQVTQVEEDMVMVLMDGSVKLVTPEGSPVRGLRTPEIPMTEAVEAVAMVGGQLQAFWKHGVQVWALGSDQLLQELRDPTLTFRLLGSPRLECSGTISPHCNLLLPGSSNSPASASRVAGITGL

| Structure (SMILES) | IC50 [nM] |
| --- | --- |
| Cc1cccnc1-c1nc2cc(Nc3ccc(C4CCOC4)c(CN4CCCC4)n3)ncc2s1 (racemic) [Example 252, N-[2-(3-Methylpyridin-2-yl)-[1,3]thiazolo[5,4-c]pyridin-6-yl]-5-(oxolan-3-yl)-6-[(pyrrolidin-1-yl)methyl]pyridin-2-amine] | < 100 |
| Cc1cccnc1-c1nc2cc(Nc3ccc([C@H]4CCOC4)c(CN4CCCC4)n3)ncc2s1 (single isomer, unassigned) [Example 258, N-[2-(3-Methylpyridin-2-yl)-[1,3]thiazolo[5,4-c]pyridin-6-yl]-5-[(3R or 3S)-oxolan-3-yl]-6-[(pyrrolidin-1-yl)methyl]pyridin-2-amine] | < 100 |
| Cc1cccnc1-c1nc2cc(Nc3ccc([C@@H]4CCOC4)c(CN4CCCC4)n3)ncc2s1 (single isomer, unassigned) [Example 259, N-[2-(3-Methylpyridin-2-yl)-[1,3]thiazolo[5,4-c]pyridin-6-yl]-5-[(3R or 3S)-oxolan-3-yl]-6-[(pyrrolidin-1-yl)methyl]pyridin-2-amine] | < 100 |
| c1cncc(-c2nc3cc(Nc4ccc([C@H]5CCOC5)c(CN5CCCC5)n4)ncc3s2)c1 (single isomer, unassigned) [Example 260, 5-[(3R or 3S)—Oxolan-3-yl]-N-[2-(pyridin-3-yl)-[1,3]thiazolo[5,4-c]pyridin-6-yl]-6-[(pyrrolidin-1-yl)methyl]pyridin-2-amine] | < 100 |
| c1cncc(-c2nc3cc(Nc4ccc([C@@H]5CCOC5)c(CN5CCCC5)n4)ncc3s2)c1 (single isomer, unassigned) [Example 261, 5-[(3R or 3S)—Oxolan-3-yl]-N-[2-(pyridin-3-yl)-[1,3]thiazolo[5,4-c]pyridin-6-yl]-6-[(pyrrolidin-1-yl)methyl]pyridin-2-amine] | < 100 |
| CN(C)Cc1nc(Nc2cc3nc(-c4c(F)cccc4F)sc3cn2)ccc1N1CCOCC1 [Example 1, N-[2-(2,6-Difluorophenyl)-[1,3]thiazolo[5,4-c]pyridin-6-yl]-6-[(dimethylamino)methyl]-5-(morpholin-4-yl)pyridin-2-amine] | < 100 |
| Cc1ccncc1-c1nc2cc(Nc3ccc(N4CCOCC4)c(CN(C)C)n3)ncc2s1 [Example 3, 6-[(Dimethylamino)methyl]-N-[2-(4-methylpyridin-3-yl)-[1,3]thiazolo[5,4-c]pyridin-6-yl]-5-(morpholin-4-yl)pyridin-2-amine] | < 100 |

Same assay, conditions: HPK1 ADP-Glo assay, high ATP (200 μM ATP, 5 nM HPK1); read-out: Biochemical Potency (high ATP)

| Structure (SMILES) | IC50 [nM] |
| --- | --- |
| CC[C@@H]1COCCN1c1cncc(-c2nc3cc(Nc4cc(C)nc(N5C[C@@H]6C[C@H]5CN6CC)n4)ncc3s2)c1 [Example 473] | < 100 |
| Cc1cc(Nc2cc3nc(-c4cccc(C(=O)N(C)[C@@H]5CCCOC5)c4)sc3cn2)nc(N2C[C@@H]3C[C@H]2CN3CCO)n1 [Example 542] | < 100 |
| Cc1cc(Nc2cc3nc(-c4cccc(C(=O)N(C)C[C@@H]5CCOC5)c4)sc3cn2)nc(N2C[C@@H]3C[C@H]2CN3CCO)n1 [Example 557] | < 100 |
| Cc1cc(Nc2cc3nc(-c4cccc(C(=O)N(C)[C@@H]5CCOC5)c4)sc3cn2)nc(N2C[C@@H]3C[C@H]2CN3CCO)n1 [Example 559] | < 100 |

Same assay, conditions: HPK1 ADP-Glo assay, low ATP (10 μM ATP, 2 nM HPK1); read-out: Biochemical Potency (low ATP)

| Structure (SMILES) | IC50 [nM] |
| --- | --- |
| Cc1cccnc1-c1nc2cc(Nc3cc(C4CCNC4)nc(N4CCC(F)(F)C4)n3)ncc2s1 (centres unmarked) [Example 319, [2-(3,3-difluoro-1-pyrrolidinyl)-6-(3-pyrrolidinyl)-4-pyrimidinyl][2-(3-methyl-2-pyridyl)-3-thia-1,5-diaza-6-indenyl]amine] | 100 to 1000 |
| CNS(=O)(=O)c1cccc(-c2nc3cc(Nc4cccc(N5C[C@@H]6C[C@H]5CN6)n4)ncc3s2)c1 [Example 324] | < 100 |
| CN(C)S(=O)(=O)c1cccc(-c2nc3cc(Nc4cccc(N5C[C@@H]6C[C@H]5CN6)n4)ncc3s2)c1 [Example 325] | < 100 |
| CS(=O)(=O)Nc1cccc(-c2nc3cc(Nc4cccc(N5C[C@@H]6C[C@H]5CN6)n4)ncc3s2)c1 [Example 326] | < 100 |
| CN1C[C@@H]2C[C@H]1CN2c1nccc(Nc2cc3nc(-c4ccnc5c4cnn5C)sc3cn2)n1 [Example 411] | < 100 |
| CN1C[C@@H]2C[C@H]1CN2c1cncc(Nc2cc3nc(-c4cccc(C(=O)N5CC[C@H](F)C5)c4)sc3cn2)n1 [Example 417] | < 100 |
| CN1C[C@@H]2C[C@H]1CN2c1cncc(Nc2cc3nc(-c4cccc(C(C)(C)O)c4)sc3cn2)n1 [Example 418] | < 100 |
| CN1C[C@@H]2C[C@H]1CN2c1nccc(Nc2cc3nc(-c4cccc(C(C)(C)O)c4)sc3cn2)n1 [Example 419] | < 100 |
| CN1C[C@@H]2C[C@H]1CN2c1nccc(Nc2cc3nc(-c4ncco4)sc3cn2)n1 [Example 420] | < 100 |
| CN1C[C@@H]2C[C@H]1CN2c1cncc(Nc2cc3nc(-c4ncco4)sc3cn2)n1 [Example 421] | < 100 |
| CN1C[C@@H]2C[C@H]1CN2c1nccc(Nc2cc3nc(N4CCc5cnccc5C4)sc3cn2)n1 [Example 426] | 100 to 1000 |
| CN1C[C@@H]2C[C@H]1CN2c1nccc(Nc2cc3nc(N4CCc5ccncc5C4)sc3cn2)n1 [Example 427] | 100 to 1000 |
| CN1C[C@@H]2C[C@H]1CN2c1nccc(Nc2cc3nc(N4CCc5cccnc5C4)sc3cn2)n1 [Example 428] | 100 to 1000 |
| c1cnn(-c2nc3cc(Nc4cc(C5CCOCC5)nc(N5C[C@@H]6C[C@H]5CN6)n4)ncc3s2)c1 [Example 437] | < 100 |
| CN1C[C@@H]2C[C@H]1CN2c1nc(Nc2cc3nc(-c4ccnc(C(C)(C)O)c4)sc3cn2)cc(C2CCOCC2)n1 [Example 439] | < 100 |
| CC(C)(O)c1cc(-c2nc3cc(Nc4cc(C5CCOCC5)nc(N5C[C@@H]6C[C@H]5CN6)n4)ncc3s2)ccn1 [Example 441] | < 100 |
| CC(C)(O)c1cccc(-c2nc3cc(Nc4cc(C5CCOCC5)nc(N5C[C@@H]6C[C@H]5CN6)n4)ncc3s2)c1 [Example 442] | < 100 |
| CN1C[C@@H]2C[C@H]1CN2c1nccc(Nc2cc3nc(-c4ccnc(N5CCC[C@@H](O)C5)c4)sc3cn2)n1 [Example 459] | < 100 |
| CN1C[C@@H]2C[C@H]1CN2c1nccc(Nc2cc3nc(-c4ccnc(N5CC[C@@H](F)C5)c4)sc3cn2)n1 [Example 461] | < 100 |
| CN1C[C@@H]2C[C@H]1CN2c1nccc(Nc2cc3nc(-c4ccnc(N5CC[C@H](O)C5)c4)sc3cn2)n1 [Example 462] | < 100 |
| CN1C[C@@H]2C[C@H]1CN2c1nccc(Nc2cc3nc(-c4ccnc(N5CC[C@H](F)C5)c4)sc3cn2)n1 [Example 463] | < 100 |
| CN1C[C@@H]2C[C@H]1CN2c1nccc(Nc2cc3nc(-c4ccnc(N5CC[C@@H](O)C5)c4)sc3cn2)n1 [Example 465] | < 100 |
| Cc1cccnc1-c1nc2cc(Nc3ccc4c(n3)[C@@](C)(N)CCC4)ncc2s1 [Example 578] | < 100 |
| Cc1ccnn1-c1nc2cc(Nc3ccc4c(n3)C(C)(N)CC4)ncc2s1 (centres unmarked) [Example 579] | < 100 |
| Cc1ccnn1-c1nc2cc(Nc3ccc4c(n3)C(C)(N)CCC4)ncc2s1 (centres unmarked) [Example 580] | < 100 |
| Cc1cccnc1-c1nc2cc(Nc3ccc4c(n3)[C@H](N)CC4)ncc2s1 [Example 582] | < 100 |
| Cc1cccnc1-c1nc2cc(Nc3ccc4c(n3)[C@@H](N)CCC4)ncc2s1 [Example 583] | < 100 |

System: p-SLP-76 (Ser376) in Jurkat cells
Test: pSLP76 Cellular Assay (AlphaLISA SureFire Ultra p-SLP-76 (Ser376), anti-CD3 activated Jurkat cells)
Format: cell-based
Details: Homo sapiens, Jurkat, read-out: Cellular Potency
Procedure: pSLP76 cellular assay was performed using Jurkat cells and the AlphaLISA SureFire Ultra p-SLP-76 (Ser376) Assay Kit (PerkinElmer). Dose-response assays were performed in Greiner® Low Volume 384-well assay plates containing 200 nL of 22 serial 2-fold compound dilutions using Bravo and Echo. Jurkat cells were grown in RPMI-1640 supplemented with 10% FBS and PSG. The day prior to the assay, the cells were collected, and serum starved overnight in Opti-MEM. The day of the assay, the cells were collected and resuspended in HBSS. 100,000 cells/well were added to the compound plates and after a short spin, the plates were incubated at 37° C. for 1 h. The cells were activated by adding 10 μL of 0.025 mg/ml anti-CD3. Plates were then incubated at 37° C. for 45 min. Stimulation was terminated by adding […], followed by a brief centrifugation and 60 min of shaking at 300 rpm. Cell lysates (10 μL) were transferred to 384-well White Opti-plates and the samples were processed according to the manufacturer's directions. The fluorescence signal from pSLP76 was measured at 570 nm using Envision plate reader. IC50 values were determined by fitting the data to a standard 4-parameter logistic equation. The results are summarized in the Cellular Potency columns in Tables 4 and 5 below (Cellular Potency).

| Structure (SMILES) | IC50 [nM] |
| --- | --- |
| CN(C)Cc1nc(Nc2cc3nc(-c4c(F)cccc4F)sc3cn2)ccc1N1CCOCC1 [Example 1, N-[2-(2,6-Difluorophenyl)-[1,3]thiazolo[5,4-c]pyridin-6-yl]-6-[(dimethylamino)methyl]-5-(morpholin-4-yl)pyridin-2-amine] | > 5000 |

Same assay, conditions: Homo sapiens; Jurkat cells, anti-CD3 stimulation, pSLP76; read-out: Cellular Potency

| Structure (SMILES) | IC50 [nM] |
| --- | --- |
| Cc1cccnc1-c1nc2cc(Nc3ccc(C4CCOC4)c(CN4CCCC4)n3)ncc2s1 (racemic) [Example 252, N-[2-(3-Methylpyridin-2-yl)-[1,3]thiazolo[5,4-c]pyridin-6-yl]-5-(oxolan-3-yl)-6-[(pyrrolidin-1-yl)methyl]pyridin-2-amine] | 100 to 1000 |
| Cc1cccnc1-c1nc2cc(Nc3ccc([C@H]4CCOC4)c(CN4CCCC4)n3)ncc2s1 (single isomer, unassigned) [Example 258, N-[2-(3-Methylpyridin-2-yl)-[1,3]thiazolo[5,4-c]pyridin-6-yl]-5-[(3R or 3S)-oxolan-3-yl]-6-[(pyrrolidin-1-yl)methyl]pyridin-2-amine] | 100 to 1000 |
| Cc1cccnc1-c1nc2cc(Nc3ccc([C@@H]4CCOC4)c(CN4CCCC4)n3)ncc2s1 (single isomer, unassigned) [Example 259, N-[2-(3-Methylpyridin-2-yl)-[1,3]thiazolo[5,4-c]pyridin-6-yl]-5-[(3R or 3S)-oxolan-3-yl]-6-[(pyrrolidin-1-yl)methyl]pyridin-2-amine] | 100 to 1000 |
| c1cncc(-c2nc3cc(Nc4ccc([C@H]5CCOC5)c(CN5CCCC5)n4)ncc3s2)c1 (single isomer, unassigned) [Example 260, 5-[(3R or 3S)—Oxolan-3-yl]-N-[2-(pyridin-3-yl)-[1,3]thiazolo[5,4-c]pyridin-6-yl]-6-[(pyrrolidin-1-yl)methyl]pyridin-2-amine] | 100 to 1000 |
| c1cncc(-c2nc3cc(Nc4ccc([C@@H]5CCOC5)c(CN5CCCC5)n4)ncc3s2)c1 (single isomer, unassigned) [Example 261, 5-[(3R or 3S)—Oxolan-3-yl]-N-[2-(pyridin-3-yl)-[1,3]thiazolo[5,4-c]pyridin-6-yl]-6-[(pyrrolidin-1-yl)methyl]pyridin-2-amine] | 100 to 1000 |
| Cc1ccncc1-c1nc2cc(Nc3ccc(N4CCOCC4)c(CN(C)C)n3)ncc2s1 [Example 3, 6-[(Dimethylamino)methyl]-N-[2-(4-methylpyridin-3-yl)-[1,3]thiazolo[5,4-c]pyridin-6-yl]-5-(morpholin-4-yl)pyridin-2-amine] | 100 to 1000 |
| CN1C[C@@H]2C[C@H]1CN2c1cccc(Nc2cc3nc(-c4cccc(S(C)(=O)=O)c4)sc3cn2)n1 [Example 136, N-[2-(3-Methanesulfonylphenyl)-[1,3]thiazolo[5,4-c]pyridin-6-yl]-6-[(1S,4S)-5-methyl-2,5-diazabicyclo[2.2.1]heptan-2-yl]pyridin-2-amine] | 100 to 1000 |
| Cc1ccc(Nc2cc3nc(-c4ncccc4C)sc3cn2)nc1OC[C@H](N)C(C)(C)C [Example 180, 6-[(2R)-2-Amino-3,3-dimethylbutoxy]-5-methyl-N-[2-(3-methylpyridin-2-yl)-[1,3]thiazolo[5,4-c]pyridin-6-yl]pyridin-2-amine] | > 5000 |

Same assay, conditions: Homo sapiens; pSLP76 (Ser376) AlphaLISA, anti-CD3 activated Jurkat cells; read-out: Cellular Potency

| Structure (SMILES) | IC50 [nM] |
| --- | --- |
| Cc1cc(Nc2cc3nc(-c4cccc(C(=O)N(C)C5CCCOC5)c4)sc3cn2)nc(N2C[C@@H]3C[C@H]2CN3CCO)n1 (some centres unmarked) [Example 542] | < 100 |
| Cc1cc(Nc2cc3nc(-c4cccc(C(=O)N(C)CC5CCOC5)c4)sc3cn2)nc(N2C[C@@H]3C[C@H]2CN3CCO)n1 (some centres unmarked) [Example 557] | 100 to 1000 |
| Cc1cc(Nc2cc3nc(-c4cccc(C(=O)N(C)C5CCOC5)c4)sc3cn2)nc(N2C[C@@H]3C[C@H]2CN3CCO)n1 (some centres unmarked) [Example 559] | 100 to 1000 |
